Each structure is given as a SMILES string. pEC50: −log10 of the molar value. A value given as a limit tells only on which side of the number the result lay.

Results on 31 molecules are retold here after patent publication US9120779B2, “Inhibitors of HCV NS5A” (PRESIDIO PHARMACEUTICALS, INC., priority 2008, dated 2015).

One assay has as its system HCV genotype 1b replicon in Huh 7 cells. The experiment in a line: HCV replicon assay (luciferase readout, 1b_Huh-Luc/Neo-ET cell line). In kind it is cell-based. The following applies: Hepatitis C virus, Huh-7, 72 h, read-out: Inhibition of HCV genotype 1b, Table 5, 72 h incubation. Put shortly:
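Inhibition expressed as percent of untreated control luciferase signal and fitted to a Hill-slope equation for EC50, with repeat determinations. Compounds were added in triplicate to Huh 7 cells stably expressing the genotype 1b luciferase replicon, with 72 h exposure.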
Background: In antiviral work, replicon cells carry a viral genome segment that copies itself.
Consider `COC(=O)N[C@H](C(=O)N1CCC[C@H]1c1ncc(C23CCC(c4ccc(-c5cnc([C@@H]6CCCN6C(=O)[C@H](NC(=O)OC6CCOCC6)C(C)C)[nH]5)cc4)(CC2)CC3)[nH]1)C(C)C` [compound 2080], for which the pEC50 is over 9.00.
The same measure, in the same setting: to `COC(=O)N[C@@H](C)C(=O)N1CCC[C@H]1c1ncc(-c2ccc(C34CCC(c5cnc([C@@H]6CCCN6C(=O)[C@@H](NC(=O)OC)C(C)C)[nH]5)(CC3)CC4)cc2)[nH]1` [compound 2081] belongs over 9.00; to `COC(=O)N[C@H](C(=O)N1CCC[C@H]1c1ncc(C23CCC(c4ccc(-c5cnc([C@@H]6CCCN6C(=O)[C@@H](C)NC(=O)OC)[nH]5)cc4)(CC2)CC3)[nH]1)C(C)C` [compound 2082], over 9.00.
Same read-out and setting: to `COC(=O)N[C@H](C(=O)N[C@@H](C)c1ncc(-c2ccc(C34CCC(c5cnc([C@@H]6CCCN6C(=O)[C@H](NC(=O)OC)c6ccccc6)[nH]5)(CC3)CC4)cc2)[nH]1)C(C)C` [compound 2083] belongs over 9.00.
Still for that read-out and setting: to `COC(=O)N[C@H](C(=O)N1CCC[C@H]1c1ncc(-c2ccc(C34CCC(c5cnc([C@@H]6CCCN6C(=O)[C@H](NC(=O)OC6CCOCC6)C(C)C)[nH]5)(CC3)CC4)cc2)[nH]1)C(C)C` [compound 2084] belongs over 9.00; to `COC(=O)N[C@H](C(=O)N[C@@H](C)c1ncc(-c2ccc(C34CCC(c5cnc([C@@H]6CCCN6C(=O)[C@@H](c6ccccc6)N(C)C)[nH]5)(CC3)CC4)cc2)[nH]1)C(C)C` [compound 2085], over 9.00; to `COC(=O)N[C@@H](C(=O)N1CCOC[C@H]1c1ncc(-c2ccc(C34CCC(c5cnc([C@@H]6CCCN6C(=O)[C@H](NC(=O)OC)c6ccccc6)[nH]5)(CC3)CC4)cc2)[nH]1)c1ccccc1` [compound 2086], over 9.00.
For `COC(=O)N[C@H](C(=O)N1CCOC[C@H]1c1ncc(-c2ccc(C34CCC(c5cnc([C@@H]6CCCN6C(=O)[C@@H](NC(=O)OC)C(C)C)[nH]5)(CC3)CC4)cc2)[nH]1)C(C)C` [compound 2087], the pEC50 is over 9.00.
On the same count and under the same terms, the result for `COC(=O)N[C@H](C(=O)N1CCC[C@H]1c1ncc(-c2ccc(C34CCC(c5cnc([C@@H]6CCCN6C(=O)[C@H](NC(=O)N6CC[C@@H](O)C6)c6ccccc6)[nH]5)(CC3)CC4)cc2)[nH]1)C(C)C` [compound 2088] reads over 9.00; that for `CNC(=O)N[C@@H](C(=O)N1CCC[C@H]1c1ncc(C23CCC(c4ccc(-c5cnc([C@@H]6CCCN6C(=O)[C@@H](NC(=O)OC)C(C)C)[nH]5)cc4)(CC2)CC3)[nH]1)c1ccccc1` [compound 2089], over 9.00.
On the same count and under the same terms, the result for `CCNC(=O)N[C@@H](C(=O)N1CCC[C@H]1c1ncc(C23CCC(c4ccc(-c5cnc([C@@H]6CCCN6C(=O)[C@@H](NC(=O)OC)C(C)C)[nH]5)cc4)(CC2)CC3)[nH]1)c1ccccc1` [compound 2090] reads over 9.00; that for `COC(=O)N[C@@H](CC(C)C)C(=O)N1CCC[C@H]1c1ncc(-c2ccc(C34CCC(c5cnc([C@@H]6CCCN6C(=O)[C@H](CC(C)C)NC(=O)OC)[nH]5)(CC3)CC4)cc2)[nH]1` [compound 2091], over 9.00; that for `CCC(C)[C@H](NC(=O)OC)C(=O)N1CCC[C@H]1c1ncc(-c2ccc(C34CCC(c5cnc([C@@H]6CCCN6C(=O)[C@@H](NC(=O)OC)C(C)CC)[nH]5)(CC3)CC4)cc2)[nH]1` (stereo partly shown) [compound 2092], over 9.00.
Still for that read-out and setting: the result for `COC(=O)N[C@H](C(=O)N1CCC[C@H]1c1ncc(-c2ccc(C34CCC(c5cnc([C@@H]6CCCN6C(=O)[C@@H](NC(=O)OC)C(C)(C)C)[nH]5)(CC3)CC4)cc2)[nH]1)C(C)(C)C` [compound 2093] reads over 9.00; that for `COC(=O)N[C@H](C(=O)N1CCC[C@H]1c1ncc(-c2ccc(C34CCC(c5cnc([C@@H]6CCCN6C(=O)[C@@H](NC(=O)OC)C6CCCC6)[nH]5)(CC3)CC4)cc2)[nH]1)C1CCCC1` [compound 2094], over 9.00.
Regarding `CNC(=O)N[C@H](C(=O)N1CCC[C@H]1c1ncc(-c2ccc(C34CCC(c5cnc([C@@H]6CCCN6C(=O)[C@@H](NC(=O)OC)C(C)C)[nH]5)(CC3)CC4)cc2)[nH]1)C(C)C` [compound 2095], the pEC50 is over 9.00.
The same measure, in the same setting: to `CCNC(=O)N[C@H](C(=O)N1CCC[C@H]1c1ncc(-c2ccc(C34CCC(c5cnc([C@@H]6CCCN6C(=O)[C@@H](NC(=O)OC)C(C)C)[nH]5)(CC3)CC4)cc2)[nH]1)C(C)C` [compound 2096] belongs over 9.00; to `COC(=O)N[C@H](C(=O)N[C@@H](C)c1ncc(C23CCC(c4ccc(-c5cnc([C@@H]6CCCN6C(=O)[C@@H](NC(=O)OC)C(C)C)[nH]5)cc4)(CC2)CC3)[nH]1)C(C)C` [compound 2097], over 9.00.
Consider `COC(=O)N[C@@H](C(=O)N[C@@H](C)c1ncc(C23CCC(c4ccc(-c5cnc([C@@H]6CCCN6C(=O)[C@H](NC(=O)OC)c6ccccc6)[nH]5)cc4)(CC2)CC3)[nH]1)c1ccccc1` [compound 2098], for which the pEC50 is over 9.00.
Turning to `CNC(=O)N[C@H](C(=O)N1CCC[C@H]1c1ncc(C23CCC(c4ccc(-c5cnc([C@@H]6CCCN6C(=O)[C@@H](NC(=O)OC)C(C)C)[nH]5)cc4)(CC2)CC3)[nH]1)C(C)C` [compound 2099], the pEC50 is over 9.00.
Same read-out and setting: the result for `CCNC(=O)N[C@H](C(=O)N1CCC[C@H]1c1ncc(C23CCC(c4ccc(-c5cnc([C@@H]6CCCN6C(=O)[C@@H](NC(=O)OC)C(C)C)[nH]5)cc4)(CC2)CC3)[nH]1)C(C)C` [compound 2100] reads over 9.00; that for `COC(=O)N[C@H](C(=O)N1CCC[C@H]1c1ncc(C23CCC(c4ccc(-c5cnc([C@@H]6CCCN6C(=O)[C@H](NC(=O)N6CCC(O)CC6)c6ccccc6)[nH]5)cc4)(CC2)CC3)[nH]1)C(C)C` [compound 2101], over 9.00; that for `CNC(=O)N[C@@H](C(=O)N1CCC[C@H]1c1ncc(-c2ccc(C34CCC(c5cnc([C@@H]6CCCN6C(=O)[C@@H](NC(=O)OC)C(C)C)[nH]5)(CC3)CC4)cc2)[nH]1)c1ccccc1` [compound 2102], over 9.00.
The same measure, in the same setting: to `CCNC(=O)N[C@@H](C(=O)N1CCC[C@H]1c1ncc(-c2ccc(C34CCC(c5cnc([C@@H]6CCCN6C(=O)[C@@H](NC(=O)OC)C(C)C)[nH]5)(CC3)CC4)cc2)[nH]1)c1ccccc1` [compound 2103] belongs over 9.00.
On the same count and under the same terms, the result for `COC(=O)N[C@H](C(=O)N1CCC[C@H]1c1ncc(-c2ccc(C34CCC(c5cnc([C@H](C)NC(=O)[C@H](NC(=O)OC)c6ccccc6)[nH]5)(CC3)CC4)cc2)[nH]1)C(C)C` [compound 2104] reads over 9.00; that for `COC(=O)NC(C(=O)N1CCC[C@H]1c1ncc(-c2ccc(C34CCC(c5cnc([C@H](C)NC(=O)[C@@H](NC(=O)OC)C(C)C)[nH]5)(CC3)CC4)cc2)[nH]1)c1ccccc1` (stereo partly shown) [compound 2105], over 9.00.
For the molecule `COC(=O)N[C@H](C(=O)N1CCC[C@H]1c1ncc(-c2ccc(C34CCC(c5cnc([C@@H]6CCCN6C(=O)[C@@H](NC(=O)OC)C6CCOCC6)[nH]5)(CC3)CC4)cc2)[nH]1)C(C)C` [compound 2106], the pEC50 is over 9.00.
In the case of `COC(=O)N[C@H](C(=O)N1CCC[C@H]1c1ncc(-c2ccc(C34CCC(c5cnc([C@@H]6CCCN6C(=O)[C@@H](NC(=O)OC6CCOCC6)c6ccccc6)[nH]5)(CC3)CC4)cc2)[nH]1)C(C)C` [compound 2107], the pEC50 is over 9.00.
On the same count and under the same terms, to `COC(=O)N[C@H](C(=O)N1CCC[C@H]1c1ncc(-c2ccc(C34CCC(c5cnc([C@@H]6CCCN6C(=O)[C@H](NC(=O)OC6CCOCC6)c6ccccc6)[nH]5)(CC3)CC4)cc2)[nH]1)C(C)C` [compound 2108] belongs over 9.00.

Still in this assay, the particulars now being: Hepatitis C virus, Huh-7, 72 h, read-out: Inhibition of HCV genotype 1b, Table 7, 72 h incubation.
With `COC(=O)N[C@@H](C(=O)N1CCC[C@H]1c1cnc(N2CCN(c3ccc(-c4cnc([C@@H]5CCCN5C(=O)[C@H](NC(=O)OC)c5ccccc5)[nH]4)cc3)C(=O)C2)[nH]1)c1ccccc1` [compound 2113], the pEC50 is over 9.00.

The same assay, now with this note: Hepatitis C virus, Huh-7, 72 h, read-out: Inhibition of HCV genotype 1b, Table 8, 72 h incubation.
For the molecule `COC(=O)N[C@H](C(=O)N1CCC[C@H]1c1ncc(C23CCC(c4ccc5c(c4)nc([C@@H]4CCCN4C(=O)[C@@H](NC(=O)OC)C(C)C)n5C)(CC2)CC3)[nH]1)C(C)C` [compound 2116], the pEC50 is 6.00 to 8.00.
